Reference: ChEMBL document CHEMBL1153288, “1,3,4-Oxadiazole substituted naphthyridines as HIV-1 integrase inhibitors. Part 2: SAR of the C5 position” (Bioorg Med Chem Lett, 2009)

Legend:
[1] = Inhibition of recombinant HIV integrase strand transfer activity; parameters: species or system Human immunodeficiency virus
[2] = system: Human immunodeficiency virus; test: Antiviral activity against G-pseudotyped HIV expressed in 293T cells with pGI3Luci; format: functional, organism-based; conditions: Human immunodeficiency virus 1, HEK-293T
[3] = Therapeutic index, CC50 for human 293T cells to EC50 for G-pseudotyped HIV; format: cell-based; conditions: read-out: Ratio CC50/EC50

Compound | IC50 [1] [nM] | EC50 [2] [nM] | selectivity ratio [3]
CCOC(=O)C(=O)Nc1nc(-c2nnc(Cc3ccc(F)cc3)o2)c(O)c2ncccc12 | 33 | 1300 | 10
CN1CCN(c2nc(-c3nnc(Cc4ccc(F)cc4)o3)c(O)c3ncccc23)C1=O | 15 | 30 | > 466
O=C1NCCN1c1nc(-c2nnc(Cc3ccc(F)cc3)o2)c(O)c2ncccc12 | 12 | 45 | 311
Oc1c(-c2nnc(Cc3ccc(F)cc3)o2)nc(-c2ccc[nH]2)c2cccnc12 | 12 | 160 | 31
N#Cc1ccc(-c2nc(-c3nnc(Cc4ccc(F)cc4)o3)c(O)c3ncccc23)cc1 | 15 | 26 | 72
O=C(c1nc(-c2nnc(Cc3ccc(F)cc3)o2)c(O)c2ncccc12)N1CCC(O)CC1 | 27 | 220 | > 65
O=C1CNCCN1c1nc(-c2nnc(Cc3ccc(F)cc3)o2)c(O)c2ncccc12 | 38 | 240 | 58
CNc1nc(-c2nnc(Cc3ccc(F)cc3)o2)c(O)c2ncccc12 | 74 | 400 | 30
Oc1c(-c2nnc(Cc3ccc(F)cc3)o2)nc(-c2ccoc2)c2cccnc12 | 23 | 100 | 116
Cc1ccccc1S(=O)(=O)Nc1nc(-c2nnc(Cc3ccc(F)cc3)o2)c(O)c2ncccc12 | 42 | 190 | 74
O=C1CCCCN1c1nc(-c2nnc(Cc3ccc(F)cc3)o2)c(O)c2ncccc12 | 88 | 87 | > 160
CS(=O)(=O)c1ccccc1-c1nc(-c2nnc(Cc3ccc(F)cc3)o2)c(O)c2ncccc12 | 11 | 23 | 243
CS(=O)(=O)Nc1nc(-c2nnc(Cc3ccc(F)cc3)o2)c(O)c2ncccc12 | 19 | 110 | 131
CC(=O)Nc1nc(-c2nnc(Cc3ccc(F)cc3)o2)c(O)c2ncccc12 | 72 | 110 | 127
O=C(c1nc(-c2nnc(Cc3ccc(F)cc3)o2)c(O)c2ncccc12)N1CCOCC1 | 130 | 97 | 134
CN1CCN(C(=O)c2nc(-c3nnc(Cc4ccc(F)cc4)o3)c(O)c3ncccc23)CC1 | 44 | 97 | > 144
CN(C)C(=O)CN1CCN(c2nc(-c3nnc(Cc4ccc(F)cc4)o3)c(O)c3ncccc23)CC1 | 12 | 43 | 205
Oc1c(-c2nnc(Cc3ccc(F)cc3)o2)nc(-c2ccccc2)c2cccnc12 | 29 | 36 | 49
Oc1c(-c2nnc(Cc3ccc(F)cc3)o2)nc(-c2ccccn2)c2cccnc12 | 30 | 56 | 40
O=C1CCCCCN1c1nc(-c2nnc(Cc3ccc(F)cc3)o2)c(O)c2ncccc12 | 25 | 34 | > 411
Nc1cccc(-c2nc(-c3nnc(Cc4ccc(F)cc4)o3)c(O)c3ncccc23)c1 | 15 | 15 | 546

Compound | IC50 [1] [nM] | EC50 [2] [nM] | selectivity ratio [3]
O=C1OCCN1c1nc(-c2nnc(Cc3ccc(F)cc3)o2)c(O)c2ncccc12 | 13 | 21 | > 666
CNC(=O)c1nc(-c2nnc(Cc3ccc(F)cc3)o2)c(O)c2ncccc12 | 120 | 150 | 43
CC(C)NS(=O)(=O)c1ccccc1-c1nc(-c2nnc(Cc3ccc(F)cc3)o2)c(O)c2ncccc12 | 12 | 8 | 295
CS(=O)(=O)N1CCN(c2nc(-c3nnc(Cc4ccc(F)cc4)o3)c(O)c3ncccc23)CC1 | 19 | 38 | 162
Oc1c(-c2nnc(Cc3ccc(F)cc3)o2)nc(-c2cnccn2)c2cccnc12 | 20 | 170 | 24
CN(C)C(=O)c1ccc(-c2nc(-c3nnc(Cc4ccc(F)cc4)o3)c(O)c3ncccc23)cc1 | 18 | 12 | 668
Cc1ccn(-c2nc(-c3nnc(Cc4ccc(F)cc4)o3)c(O)c3ncccc23)n1 | 21 | 380 | 23
NC(=O)c1nc(-c2nnc(Cc3ccc(F)cc3)o2)c(O)c2ncccc12 | 100 | 160 | 75
O=C(O)c1nc(-c2nnc(Cc3ccc(F)cc3)o2)c(O)c2ncccc12 | 860 | 4400 | > 3
CN(C)S(=O)(=O)c1ccc(-c2nc(-c3nnc(Cc4ccc(F)cc4)o3)c(O)c3ncccc23)cc1 | 18 | 9 | 218
CC(C)NC(=O)c1nc(-c2nnc(Cc3ccc(F)cc3)o2)c(O)c2ncccc12 | 190 | 98 | 22
O=C(NCCO)c1nc(-c2nnc(Cc3ccc(F)cc3)o2)c(O)c2ncccc12 | 130 | 1490 | > 9
O=C(NCCCO)c1nc(-c2nnc(Cc3ccc(F)cc3)o2)c(O)c2ncccc12 | 71 | 470 | > 30
CN(C)C(=O)C(=O)N(C)c1nc(-c2nnc(Cc3ccc(F)cc3)o2)c(O)c2ncccc12 | 85 | 310 | > 40
CC(=O)Nc1cccc(-c2nc(-c3nnc(Cc4ccc(F)cc4)o3)c(O)c3ncccc23)c1 | 80 | 10 | 1400
O=C1N(CCO)CCN1c1nc(-c2nnc(Cc3ccc(F)cc3)o2)c(O)c2ncccc12 | 13 | 94 | 148
CC(=O)N(C)c1nc(-c2nnc(Cc3ccc(F)cc3)o2)c(O)c2ncccc12 | 28 | 180 | 428
CN(C)C(=O)N1CCN(c2nc(-c3nnc(Cc4ccc(F)cc4)o3)c(O)c3ncccc23)C(=O)C1 | 23 | 87 | 120
Oc1c(-c2nnc(Cc3ccc(F)cc3)o2)nc(-c2cccnc2)c2cccnc12 | 11 | 36 | 194
CN(C)S(=O)(=O)Nc1nc(-c2nnc(Cc3ccc(F)cc3)o2)c(O)c2ncccc12 | 15 | 84 | 127
O=C1CCCN1c1nc(-c2nnc(Cc3ccc(F)cc3)o2)c(O)c2ncccc12 | 19 | 89 | > 156
